No end group written: not given here. 2,3‑bisacyloxypropyl = 2,3-bisacyloxypropyl group on the Cys sulfur
Experiments:
[1] = system: TLR8 and TLR7; experiment: TLR agonism and TLR8 selectivity (TLR-mediated activity); type: cell-based; conditions: for concentration inducing TLR8 activity as fraction of that necessary to induce TLR7-mediated activity: TLR8 vs TLR7 selectivity; for TLR8 selectivity: named as examples of TLR8-selective compounds
Description: The TLR agonism for a particular compound may be assessed in any suitable manner.
Conversely, a compound may be identified as not acting as an agonist of a specified TLR if, when used to perform an assay designed to detect biological activity mediated by the specified TLR, the compound fails to elicit a threshold increase in the biological activity. […] An assay may or may not be performed in conjunction with the appropriate control.
A significant degree may be, for example, inducing activity mediated by one TLR (e.g., TLR8) when administered at half the concentration necessary to induce activity through another TLR (e.g., TLR7).
Assays employing HEK293 cells transfected with an expressible TLR structural gene may use a threshold of, for example, at least a three-fold increase in a TLR-mediated biological activity (e.g., NFκB activation) when the compound is provided at a concentration of, for example, from about 1 μM to about 10 μM for identifying a compound as an agonist of the TLR transfected into the cell. However, different thresholds and/or different concentration ranges may be suitable in certain circumstances. Also, different thresholds may be appropriate for different assays.

[2] = system: TLR8 and TLR7; conditions: cited from earlier work
[3] = system: newborn cord blood and adult peripheral blood; experiment: TLR ligand-induced TNF-α release in whole blood ex vivo (ELISA); type: cell-based, human; conditions: for ligand-induced TNF-α release in newborn cord blood compared with adult peripheral blood: 5-hour incubation, FIGS. 1A-1E
Protocol: Peripheral blood was collected from healthy adult volunteers (N=26 individual volunteers; mean age 27 years; 45% male, 55% female) and newborn cord blood (N=63; mean gestational age 39 weeks; 43% male, 57% female) collected immediately after cesarean section delivery (epidural anesthesia) of the placenta or from the umbilical cord immediately after vaginal birth but prior to delivery of the placenta. Births at which antibiotics were administered during labor and/or delivery, and births to HIV-positive mothers were excluded. Human experimentation guidelines of the US Department of Health and Human Services and the Brigham & Women's Hospital were observed, following protocols approved by the local Institutional Review Board. Blood was anticoagulated with 129 mM sodium citrate (Becton Dickinson, Franklin Lakes, N.J.). Hemocytes were collected by centrifugation of blood, followed by washing three times with Hank's Balanced Salt Solution (HBSS) buffer without magnesium or calcium (Gibco BRL, Grand Island, N.Y.) and then resuspension in either autologous or heterologous 100% plasma.
TLR ligands included the synthetic triacylated BLP (tBLP) Pam3-CSSNA (Bachem Bioscience, King of Prussia, Pa.) corresponding to the N-terminus of a BLP from E. coli B/r (Biesert et al. 1987. Eur J Biochem 162:651), the synthetic diacylated BLP macrophage-activating lipopeptide-2 (MALP; S-(2,3-bisAcyloxypropyl)-cysteine-[…] (SEQ ID NO: 5); Alexis Biochemicals, Lausen, Switzerland) from Mycoplasma fermentans (Muhlradt et al. 1997. J Exp Med. 185:1951), ultrapure Re 595 LPS from Salmonella minnesota (List Biologicals, Campbell, Calif.), and the IRM compounds imiquimod (3M Pharmaceuticals, Northridge, Calif.), and resiquimod (InvivoGen, San Diego, Calif.). Specificity of individual TLR ligands for their cognate receptors was confirmed using either NF-kB luciferase reporter and TLR co-transfected Human Embryonic Kidney (HEK) 293 cells or a neutralizing mAb to TLR2 (Levy, O. et al. 2003. Infect Immun 71:6344), as previously described.
After incubation of TLR ligands in blood or monocyte suspensions for 5 hours at 37° C. with end-over-end rotation, samples were diluted with five volumes of ice-cold RPMI medium (Gibco BRL) and centrifuged at 1,000×g at 4° C. for 5 minutes. The supernatant was recovered and stored at −20° C. until assay of TNF-α by ELISA (R&D Systems, Minneapolis, Minn.).
TLR ligand-induced TNF-α release in whole human blood ex vivo as described above in Example 1. The single stranded ribonucleic acid (ssRNA) tested in this example was ssRNA40/LyoVec purchased from InvivoGen (San Diego, Calif.) comprised of single-stranded GU-rich oligonucleotide (5′-GsCsCsCsGsUsCsUsGsUsUsGsUsGsUsGsAsCsUsC-3′ (SEQ ID NO:1); where “s” depicts a phosphothioate linkage complexed with the cationic lipid LyoVec that protects the RNA from degradation and enhance is uptake by immune cells. The guanosine analog loxoribine (TLR7 ligand) was purchased from InvivoGen.

[4] = system: neonatal myeloid dendritic cells (mDCs); experiment: CD40 expression on myeloid dendritic cells in whole blood (flow cytometry); type: cell-based, human; conditions: imiquimod 250 μM, resiquimod 50 μM, 19 hours; FIGS. 15A-15D
Protocol: After lysis of red blood cells and fixation, mDCs were identified as lint-/HLA-DR+/CD11c+ cells using four color flow cytometry (BD BioSciences) and CD40 was measured using a PE-conjugated mAb.
Newborn cord or adult peripheral blood was incubated with TLR agonists at 37° C. for 19 hours. mDCs were identified by flow cytometry and the level of expression of CD40 was measured using a PE-conjugated mAb.
CD40 expression on mDCs was studied in whole newborn cord blood, in comparison to those of adult peripheral blood, using four-color flow cytometry (BD Biosciences). mDCs were identified as lineage 1-/HLA-DR+/CD11c+ cells. Upregulation of surface CD40 expression was measured using a phycoerythrin-conjugated anti-CD40 mAb.

Row | Molecule | concentration inducing TLR8 activity as fraction of that necessary to induce TLR7-mediated activity [1] | other results
1 | CC(C)c1nc2c(N)nc3ccccc3c2s1 [2-(1-methylethyl)thiazolo[4,5-c]quinolin-4-amine] | less than one-fifth | –
2 | CC(C)Cc1nc2c(N)nc3ccccc3c2s1 [2-(2-methylpropyl)thiazolo[4,5-c]quinolin-4-amine] | less than one-fifth | –
3 | CCCCc1nc2c(N)nc3cccnc3c2s1 [2-butylthiazolo[4,5-c][1,5]naphthyridin-4-amine] | – | TLR8 selectivity [1]: TLR8-selective
4 | CCCc1nc2c(N)nc3cccnc3c2s1 [2-propylthiazolo[4,5-c][1,5]naphthyridin-4-amine] | less than one-fifth | –
5 | CCCc1nc2c(N)nc3ccc(N)cc3c2s1 [2-propylthiazolo[4,5-c]quinoline-4,8-diamine] | – | TLR8 selectivity [1]: TLR8-selective
6 | CCCc1nc2c(N)nc3cc(OCCOCCCl)ccc3c2s1 [7-[2-(2-chloroethoxy)ethoxy]-2-propyl[1,3]thiazolo[4,5-c]quinolin-4-amine] | less than one-fifth | –
7 | CCCc1nc2c(N)nc3cc(F)ccc3c2s1 [7-fluoro-2-propylthiazolo[4,5-c]quinolin-4-amine] | less than one-fifth | –
8 | CCCc1nc2c(N)nc3ccc(C)cc3c2s1 [8-methyl-2-propylthiazolo[4,5-c]quinolin-4-amine] | less than one-fifth | –
9 | CCOCc1nc2c(N)nc3c(c2n1CC(C)(C)O)CCCC3 [IRM3, 4-amino-2-(ethoxymethyl)-α,α-dimethyl-6,7,8,9-tetrahydro-1H-imidazo[4,5-c]quinoline-1-ethanol] | – | TLR agonism (which TLR) [2]: agonist of both TLR7 and TLR8
10 | CCCc1nc2c(N)nc3cc(-c4cccc(NS(C)(=O)=O)c4)ccc3c2s1 [N-[3-(4-amino-2-propylthiazolo[4,5-c]quinolin-7-yl)phenyl]methanesulfonamide] | less than one-fifth | –
11 | CCCc1nc2c(N)nc3cc(OCCCNS(=O)(=O)c4cccc5c(N(C)C)cccc45)ccc3c2s1 [N-{3-[(4-amino-2-propyl[1,3]thiazolo[4,5-c]quinolin-7-yl)oxy]propyl}-5-(dimethylamino)naphthalene-1-sulfonamide] | one half to about one-fifth | –
12 | CCCc1nc2c(N)nc3cc(OCCCCCCNS(C)(=O)=O)ccc3c2s1 [N-{6-[(4-amino-2-propyl[1,3]thiazolo[4,5-c]quinolin-7-yl)oxy]hexyl}methanesulfonamide] | less than one-fifth | –
13 | CC(C)Cn1cnc2c(N)nc3ccccc3c21 [imiquimod] | – | ligand-induced TNF-α release in newborn cord blood compared with adult peripheral blood [3]: impaired; upregulation of CD40 expression in neonatal mDCs [4]: does not; TLR agonism (which TLR) [2]: agonist at TLR7 receptors
14 | CCOCc1nc2c(N)nc3ccccc3c2n1CC(C)(C)O [resiquimod] | – | potency relative to imiquimod ([1]; FIG. 11): ~100 fold
15 | CCCc1nc2c(N)nc3cc(OCCNC(=O)OC(C)(C)C)ccc3c2s1 [tert-butyl 2-[(4-amino-2-propyl[1,3]thiazolo[4,5-c]quinolin-7-yl)oxy]ethylcarbamate] | one half to about one-fifth | –
16 | CCCc1nc2c(N)nc3cc(OCCOCCNC(=O)OC(C)(C)C)ccc3c2s1 [tert-butyl 2{-2-[(4-amino-2-propyl[1,3]thiazolo[4,5-c]quinolin-7-yl)oxy]ethoxy}ethylcarbamate] | less than one-fifth | –
17 | CCCc1nc2c(N)nc3cc(OCCCNC(=O)OC(C)(C)C)ccc3c2s1 [tert-butyl 3-[(4-amino-2-propyl[1,3]thiazolo[4,5-c]quinolin-7-yl)oxy]propylcarbamate] | less than one-fifth | –
18 | Pam3-CSSNA [tBLP] | – | ligand-induced TNF-α release in newborn cord blood compared with adult peripheral blood [3]: impaired; ligand-induced TNF-α release in cord blood compared with adult controls ([3]; cord blood from both Caesarian-section and vaginal deliveries, 5 hours, FIGS. 2A-2C): impaired; magnitude and kinetics of ligand-induced TNF-α release in newborn cord vs. adult peripheral blood ([3]; time course, FIGS. 3A-3C): lower magnitude, but similar kinetics
19 | S-(2,3-bisAcyloxypropyl)-cysteine-GNNDESNISFKEK (C(2,3‑bisacyloxypropyl)GNNDESNISFKEK; also: acyl groups not given here) [MALP, synthetic diacylated BLP from Mycoplasma fermentans (TLR2/6)] | – | ligand-induced TNF-α release in newborn cord blood compared with adult peripheral blood [3]: impaired
